Assay results from PMC8273889, “Exploiting Electrode Nanoconfinement to Investigate the Catalytic Properties of Isocitrate Dehydrogenase (IDH1) and a Cancer-Associated Variant” (The Journal of Physical Chemistry Letters, 2021).

Assays:
Type in all cases: biochemical
[1] = target: T1, IDH1 (isocitrate dehydrogenase 1) (Homo sapiens, UniProt O75874); experiment: bidirectional cyclic voltammetry of 2OG/isocitrate interconversion with CO2 supplied by carbonic anhydrase
T1 construct: homodimeric (2 × 47 kDa)

[2] = target: T2, IDH1 R132H (isocitrate dehydrogenase 1) (Homo sapiens, UniProt O75874, R132H); experiment: electrochemical turnover (cyclic voltammetry) with nanoconfined purified enzyme
T2 construct: homodimeric (2 × 47 kDa)

[3] = target: T1, IDH1 (isocitrate dehydrogenase 1); experiment: as above

T1 sequence (O75874 2-414): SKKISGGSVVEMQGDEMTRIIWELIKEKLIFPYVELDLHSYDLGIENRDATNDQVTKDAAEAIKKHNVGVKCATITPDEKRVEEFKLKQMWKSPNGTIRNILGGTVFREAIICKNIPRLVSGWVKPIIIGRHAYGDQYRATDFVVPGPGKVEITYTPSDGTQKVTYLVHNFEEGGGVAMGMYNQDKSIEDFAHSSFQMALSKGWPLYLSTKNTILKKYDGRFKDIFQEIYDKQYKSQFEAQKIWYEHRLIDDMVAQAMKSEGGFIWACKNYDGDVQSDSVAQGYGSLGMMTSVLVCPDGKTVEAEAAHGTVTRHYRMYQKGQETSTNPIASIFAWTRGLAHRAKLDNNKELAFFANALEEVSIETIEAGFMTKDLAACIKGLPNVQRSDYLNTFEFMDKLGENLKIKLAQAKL
T2 sequence (O75874 2-414 R132H): as the sequence (O75874 2-414) above, with R131H counted along it

| Structure (SMILES) | bidirectional cyclic voltammetry of 2OG/isocitrate interconversion with CO2 supp [1] | electrochemical turnover (cyclic voltammetry) with nanoconfined purified enzyme [2] | electrochemical turnover (cyclic voltammetry) with nanoconfined purified enzyme [3] |
| --- | --- | --- | --- |
| O=C(O)CCC(=O)C(=O)O [2OG, 2-oxoglutarate] | Cyclic voltammetry measuring bidirectionality of IDH1-catalyzed 2OG/isocitrate interconversion at different 2OG/isocitrate ratios | R132H-catalyzed 2OG reduction (Figure 1C, D) is much slower, manifesting low currents | – |
| O=C(O)CC(C(=O)O)C(O)C(=O)O (stereo not drawn) [isocitrate] | – | – | IDH1 (Figure 1A, B) is an excellent catalyst for isocitrate oxidation |
